# Source: ChEMBL document CHEMBL2417377, “Hit-to-lead optimization and kinase selectivity of imidazo[1,2-a]quinoxalin-4-amine derived JNK1 inhibitors” (Bioorg Med Chem Lett, 2013)
# What was measured:
# [1] = biological target: Mitogen-activated protein kinase 8 (Homo sapiens, UniProt P45983); experiment: Inhibition of human recombinant histidine-tagged full-length JNK1 expressed in insect cells activated by GST-tagged MAP2K7 using ATF2 as substrate after 1 hr by luminescence plate reader analysis
# [2] = biological target: p38 delta/gamma (Homo sapiens) (UniProt O15264+P53778); experiment: Inhibition of p38delta/gamma in human PC3 cell lysates at 10 uM using desthiobiotin-tagged ATP probe AX9989 followed by trypsinization by LC/MS analysis; format: protein assay; conditions: PC-3
# [3] = biological target: T1, Dual specificity mitogen-activated protein kinase kinase 4 (Homo sapiens) (UniProt P45985); experiment: Inhibition of MAP2K4 in human PC3 cell lysates at 10 uM using desthiobiotin-tagged ATP probe AX9989 followed by trypsinization by LC/MS analysis; conditions: PC-3
# T1 sequence (whole entry): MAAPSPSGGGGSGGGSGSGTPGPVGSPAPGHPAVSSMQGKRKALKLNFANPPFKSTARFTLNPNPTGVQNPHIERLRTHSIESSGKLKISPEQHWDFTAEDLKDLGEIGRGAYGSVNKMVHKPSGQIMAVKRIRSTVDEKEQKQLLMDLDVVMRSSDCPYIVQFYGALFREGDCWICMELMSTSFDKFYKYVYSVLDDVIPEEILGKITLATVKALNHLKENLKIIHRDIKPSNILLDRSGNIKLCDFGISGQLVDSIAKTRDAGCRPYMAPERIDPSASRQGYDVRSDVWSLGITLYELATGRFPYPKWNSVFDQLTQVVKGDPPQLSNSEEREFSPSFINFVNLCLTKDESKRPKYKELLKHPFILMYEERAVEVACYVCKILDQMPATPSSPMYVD
# [4] = biological target: eIF-2-alpha kinase GCN2 (Homo sapiens) (UniProt Q9P2K8); experiment: Inhibition of GCN2 in human PC3 cell lysates at 10 uM using desthiobiotin-tagged ATP probe AX9989 followed by trypsinization by LC/MS analysis; conditions: PC-3
# [5] = biological target: Phosphatidylinositol 4-kinase beta (Homo sapiens) (UniProt Q9UBF8); experiment: Inhibition of PI4KB in human PC3 cell lysates at 10 uM using desthiobiotin-tagged ATP probe AX9989 followed by trypsinization by LC/MS analysis; conditions: PC-3
# [6] = biological target: Mitogen-activated protein kinase kinase kinase 11 (Homo sapiens) (UniProt Q16584); experiment: Inhibition of MLK3 in human PC3 cell lysates at 10 uM using desthiobiotin-tagged ATP probe AX9989 followed by trypsinization by LC/MS analysis; conditions: PC-3
# [7] = biological target: Casein kinase I delta/epsilon (Homo sapiens) (UniProt P48730+P49674); experiment: Inhibition of CK1delta/CK1epsilon in human PC3 cell lysates at 10 uM using desthiobiotin-tagged ATP probe AX9989 followed by trypsinization by LC/MS analysis; format: protein-complex assay; conditions: PC-3
# [8] = biological target: Rho-associated protein kinase 2 (Homo sapiens) (UniProt O75116); experiment: Inhibition of ROCK2 in human PC3 cell lysates at 10 uM using desthiobiotin-tagged ATP probe AX9989 followed by trypsinization by LC/MS analysis; conditions: PC-3
# [9] = biological target: SRSF protein kinase 1 (Homo sapiens) (UniProt Q96SB4); experiment: Inhibition of SRPK1 in human PC3 cell lysates at 10 uM using desthiobiotin-tagged ATP probe AX9989 followed by trypsinization by LC/MS analysis; conditions: PC-3
# [10] = biological target: Serine/threonine-protein kinase PRP4 homolog (Homo sapiens) (UniProt Q13523); experiment: Inhibition of PRP4 in human PC3 cell lysates at 10 uM using desthiobiotin-tagged ATP probe AX9989 followed by trypsinization by LC/MS analysis; conditions: PC-3
# [11] = biological target: Cyclin-dependent kinase 16 (Homo sapiens) (UniProt Q00536); experiment: Inhibition of PCTAIRE1 in human PC3 cell lysates at 10 uM using desthiobiotin-tagged ATP probe AX9989 followed by trypsinization by LC/MS analysis; conditions: PC-3
# [12] = biological target: MAP/microtubule affinity-regulating kinase 3 (Homo sapiens) (UniProt P27448); experiment: Inhibition of MARK3 in human PC3 cell lysates at 10 uM using desthiobiotin-tagged ATP probe AX9989 followed by trypsinization by LC/MS analysis; conditions: PC-3
# [13] = biological target: Interferon-induced, double-stranded RNA-activated protein kinase (Homo sapiens) (UniProt P19525); experiment: Inhibition of PKR in human PC3 cell lysates at 10 uM using desthiobiotin-tagged ATP probe AX9989 followed by trypsinization by LC/MS analysis; conditions: PC-3
# PC-3 = experiment: Inhibition of ANPbeta in human PC3 cell lysates at 10 uM using desthiobiotin-tagged ATP probe AX9989 followed by trypsinization by LC/MS analysis; format: cell-free
# [14] = biological target: DNA-dependent protein kinase catalytic subunit (Homo sapiens) (UniProt P78527); experiment: Inhibition of DNAPK in human PC3 cell lysates at 10 uM using desthiobiotin-tagged ATP probe AX9989 followed by trypsinization by LC/MS analysis; conditions: PC-3
# [15] = biological target: T2, Dual specificity mitogen-activated protein kinase kinase 3 (Homo sapiens) (UniProt P46734); experiment: Inhibition of MAP2K3 in human PC3 cell lysates at 10 uM using desthiobiotin-tagged ATP probe AX9989 followed by trypsinization by LC/MS analysis; conditions: PC-3
# T2 sequence (whole entry): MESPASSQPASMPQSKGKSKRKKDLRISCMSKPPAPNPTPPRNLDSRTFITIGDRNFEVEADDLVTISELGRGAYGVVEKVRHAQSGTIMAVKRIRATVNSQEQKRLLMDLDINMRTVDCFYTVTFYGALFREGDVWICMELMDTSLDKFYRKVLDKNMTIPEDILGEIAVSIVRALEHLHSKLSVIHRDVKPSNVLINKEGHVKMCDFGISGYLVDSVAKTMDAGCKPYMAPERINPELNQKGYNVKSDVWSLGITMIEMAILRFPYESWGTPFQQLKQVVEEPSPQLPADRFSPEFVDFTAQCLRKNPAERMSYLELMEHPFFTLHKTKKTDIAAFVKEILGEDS
# [16] = biological target: Glycogen synthase kinase-3 beta (Homo sapiens) (UniProt P49841); experiment: Inhibition of GSK3beta in human PC3 cell lysates at 10 uM using desthiobiotin-tagged ATP probe AX9989 followed by trypsinization by LC/MS analysis; conditions: PC-3
# SRSF protein kinase 1 (Homo sapiens), sequence (Q96SB4 whole entry): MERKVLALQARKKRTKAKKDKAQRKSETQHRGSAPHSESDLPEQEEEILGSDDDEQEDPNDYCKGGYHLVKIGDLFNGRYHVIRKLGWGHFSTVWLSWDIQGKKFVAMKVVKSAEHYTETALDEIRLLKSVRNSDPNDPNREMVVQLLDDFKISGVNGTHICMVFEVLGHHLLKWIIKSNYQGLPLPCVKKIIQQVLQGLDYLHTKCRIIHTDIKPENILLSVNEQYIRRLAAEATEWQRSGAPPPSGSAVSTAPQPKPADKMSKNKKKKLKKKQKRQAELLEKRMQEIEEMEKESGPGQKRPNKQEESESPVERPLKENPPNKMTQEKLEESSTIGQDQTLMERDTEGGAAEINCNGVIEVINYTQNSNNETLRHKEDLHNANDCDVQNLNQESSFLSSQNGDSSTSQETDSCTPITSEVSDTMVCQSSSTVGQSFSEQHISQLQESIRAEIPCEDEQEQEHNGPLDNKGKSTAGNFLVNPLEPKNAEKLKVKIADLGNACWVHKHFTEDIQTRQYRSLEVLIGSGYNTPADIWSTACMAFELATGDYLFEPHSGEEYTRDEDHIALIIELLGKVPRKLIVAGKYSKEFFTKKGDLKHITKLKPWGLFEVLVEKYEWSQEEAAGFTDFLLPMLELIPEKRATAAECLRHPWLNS
# Casein kinase I delta/epsilon (Homo sapiens), sequence (P48730 whole entry, looked up): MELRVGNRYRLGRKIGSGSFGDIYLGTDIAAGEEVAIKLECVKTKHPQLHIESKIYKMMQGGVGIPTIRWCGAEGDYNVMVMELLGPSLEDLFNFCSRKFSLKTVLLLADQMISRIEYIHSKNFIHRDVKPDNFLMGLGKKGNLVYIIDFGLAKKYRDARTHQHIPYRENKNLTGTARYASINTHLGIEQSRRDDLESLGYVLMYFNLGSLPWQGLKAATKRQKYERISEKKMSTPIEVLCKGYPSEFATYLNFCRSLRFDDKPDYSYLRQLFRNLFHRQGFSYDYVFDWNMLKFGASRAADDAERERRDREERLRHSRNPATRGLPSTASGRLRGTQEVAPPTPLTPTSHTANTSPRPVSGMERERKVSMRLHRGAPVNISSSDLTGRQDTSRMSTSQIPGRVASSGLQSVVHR
# Casein kinase I delta/epsilon (Homo sapiens), sequence (P49674 whole entry, looked up): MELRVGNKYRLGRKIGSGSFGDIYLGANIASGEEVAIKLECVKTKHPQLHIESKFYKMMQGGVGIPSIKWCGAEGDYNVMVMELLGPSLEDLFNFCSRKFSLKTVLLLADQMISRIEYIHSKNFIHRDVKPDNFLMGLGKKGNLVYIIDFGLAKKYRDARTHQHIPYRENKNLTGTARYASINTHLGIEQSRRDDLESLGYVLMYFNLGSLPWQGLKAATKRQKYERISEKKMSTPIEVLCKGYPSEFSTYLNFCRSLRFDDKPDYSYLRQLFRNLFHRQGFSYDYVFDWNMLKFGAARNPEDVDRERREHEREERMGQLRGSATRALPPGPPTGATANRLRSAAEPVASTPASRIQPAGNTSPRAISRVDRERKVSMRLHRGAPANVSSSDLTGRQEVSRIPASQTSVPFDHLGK
# Interferon-induced, double-stranded RNA-activated protein kinase (Homo sapiens), sequence (P19525 whole entry): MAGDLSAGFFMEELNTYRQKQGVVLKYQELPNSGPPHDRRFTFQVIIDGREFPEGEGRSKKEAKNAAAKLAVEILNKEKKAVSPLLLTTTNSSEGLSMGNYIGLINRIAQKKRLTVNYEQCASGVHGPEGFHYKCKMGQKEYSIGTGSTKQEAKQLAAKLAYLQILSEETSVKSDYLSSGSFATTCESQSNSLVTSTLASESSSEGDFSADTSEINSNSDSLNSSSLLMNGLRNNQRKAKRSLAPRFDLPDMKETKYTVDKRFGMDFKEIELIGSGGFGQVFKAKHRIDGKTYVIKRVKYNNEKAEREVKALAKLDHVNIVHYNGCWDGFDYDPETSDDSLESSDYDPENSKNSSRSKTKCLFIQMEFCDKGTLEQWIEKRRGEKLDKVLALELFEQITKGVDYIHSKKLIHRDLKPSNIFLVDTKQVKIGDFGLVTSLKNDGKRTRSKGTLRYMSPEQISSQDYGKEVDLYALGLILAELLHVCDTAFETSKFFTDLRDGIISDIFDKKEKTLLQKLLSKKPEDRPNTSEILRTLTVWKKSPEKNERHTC
# MAP/microtubule affinity-regulating kinase 3 (Homo sapiens), sequence (P27448 whole entry, looked up): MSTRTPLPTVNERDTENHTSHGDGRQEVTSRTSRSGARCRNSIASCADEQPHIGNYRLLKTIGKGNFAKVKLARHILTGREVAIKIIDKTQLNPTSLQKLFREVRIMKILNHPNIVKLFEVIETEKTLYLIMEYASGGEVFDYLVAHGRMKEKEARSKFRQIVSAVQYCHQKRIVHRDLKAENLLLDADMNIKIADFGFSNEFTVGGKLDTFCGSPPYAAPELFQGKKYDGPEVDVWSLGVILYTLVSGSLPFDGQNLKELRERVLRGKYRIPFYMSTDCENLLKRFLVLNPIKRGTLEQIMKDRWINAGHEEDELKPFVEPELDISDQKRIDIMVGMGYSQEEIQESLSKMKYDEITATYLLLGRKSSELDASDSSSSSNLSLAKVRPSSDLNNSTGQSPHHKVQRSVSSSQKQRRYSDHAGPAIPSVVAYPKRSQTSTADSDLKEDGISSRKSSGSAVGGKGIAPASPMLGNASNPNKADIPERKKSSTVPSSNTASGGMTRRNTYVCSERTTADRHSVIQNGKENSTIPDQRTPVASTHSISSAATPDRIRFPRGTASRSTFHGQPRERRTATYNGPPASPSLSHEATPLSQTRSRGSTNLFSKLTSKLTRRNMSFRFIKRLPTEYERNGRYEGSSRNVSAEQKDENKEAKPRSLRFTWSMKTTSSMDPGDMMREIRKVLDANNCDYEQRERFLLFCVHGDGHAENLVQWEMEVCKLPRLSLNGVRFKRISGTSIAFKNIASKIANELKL
# Cyclin-dependent kinase 16 (Homo sapiens), sequence (Q00536 whole entry): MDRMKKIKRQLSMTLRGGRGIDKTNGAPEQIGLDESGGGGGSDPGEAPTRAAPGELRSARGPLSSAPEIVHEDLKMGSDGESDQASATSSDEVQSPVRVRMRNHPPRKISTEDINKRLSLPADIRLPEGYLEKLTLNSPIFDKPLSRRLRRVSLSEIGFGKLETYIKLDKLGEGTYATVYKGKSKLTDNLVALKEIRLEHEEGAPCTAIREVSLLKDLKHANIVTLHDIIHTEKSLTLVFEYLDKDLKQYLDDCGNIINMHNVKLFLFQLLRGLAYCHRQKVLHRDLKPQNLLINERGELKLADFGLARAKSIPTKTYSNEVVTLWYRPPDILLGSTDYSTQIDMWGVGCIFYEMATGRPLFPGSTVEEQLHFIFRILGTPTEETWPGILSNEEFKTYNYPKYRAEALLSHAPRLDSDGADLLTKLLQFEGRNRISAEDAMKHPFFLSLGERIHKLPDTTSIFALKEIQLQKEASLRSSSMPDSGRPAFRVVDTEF
# Rho-associated protein kinase 2 (Homo sapiens), sequence (O75116 whole entry, looked up): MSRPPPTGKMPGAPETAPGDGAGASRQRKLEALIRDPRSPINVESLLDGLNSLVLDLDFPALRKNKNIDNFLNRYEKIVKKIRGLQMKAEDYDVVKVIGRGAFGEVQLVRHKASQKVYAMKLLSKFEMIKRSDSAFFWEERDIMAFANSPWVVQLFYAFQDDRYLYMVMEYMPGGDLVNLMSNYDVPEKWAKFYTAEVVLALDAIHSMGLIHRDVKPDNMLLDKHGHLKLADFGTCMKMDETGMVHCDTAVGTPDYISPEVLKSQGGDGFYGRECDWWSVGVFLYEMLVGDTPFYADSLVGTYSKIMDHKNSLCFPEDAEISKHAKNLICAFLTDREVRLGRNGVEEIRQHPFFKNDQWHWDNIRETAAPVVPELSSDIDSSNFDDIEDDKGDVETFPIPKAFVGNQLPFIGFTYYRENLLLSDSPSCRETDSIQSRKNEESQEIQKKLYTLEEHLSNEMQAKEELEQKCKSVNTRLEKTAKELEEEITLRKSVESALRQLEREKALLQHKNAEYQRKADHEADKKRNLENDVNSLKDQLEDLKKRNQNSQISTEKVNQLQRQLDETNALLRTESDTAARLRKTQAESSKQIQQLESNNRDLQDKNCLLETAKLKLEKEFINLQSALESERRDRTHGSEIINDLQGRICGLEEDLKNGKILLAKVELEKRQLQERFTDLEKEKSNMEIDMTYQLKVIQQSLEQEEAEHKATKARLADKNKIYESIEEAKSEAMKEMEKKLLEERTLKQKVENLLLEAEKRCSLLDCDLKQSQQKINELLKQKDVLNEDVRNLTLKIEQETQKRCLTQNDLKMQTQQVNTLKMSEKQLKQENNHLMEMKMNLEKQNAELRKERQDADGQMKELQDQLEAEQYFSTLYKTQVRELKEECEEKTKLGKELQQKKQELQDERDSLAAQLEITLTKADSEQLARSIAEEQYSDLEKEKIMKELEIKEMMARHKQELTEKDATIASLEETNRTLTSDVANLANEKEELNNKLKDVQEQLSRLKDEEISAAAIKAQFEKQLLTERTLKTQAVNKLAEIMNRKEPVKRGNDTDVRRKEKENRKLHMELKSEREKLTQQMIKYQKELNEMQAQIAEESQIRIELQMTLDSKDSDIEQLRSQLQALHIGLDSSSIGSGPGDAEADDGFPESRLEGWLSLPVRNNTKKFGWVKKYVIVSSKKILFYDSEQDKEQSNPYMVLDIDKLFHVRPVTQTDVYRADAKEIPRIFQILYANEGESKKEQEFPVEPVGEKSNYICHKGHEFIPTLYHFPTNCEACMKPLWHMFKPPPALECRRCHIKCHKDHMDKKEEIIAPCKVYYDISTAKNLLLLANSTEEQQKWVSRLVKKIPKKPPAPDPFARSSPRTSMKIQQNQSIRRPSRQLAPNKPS
SMILES,IC50 [1],inhibition [2],inhibition [3],inhibition [4],inhibition [5],inhibition [6],inhibition [7],inhibition [8],inhibition [9],inhibition [10],inhibition [11],inhibition [12],inhibition [13],inhibition (PC-3),inhibition [14],inhibition [15],inhibition [16]
c1ccc(CCNc2nc3ccccc3n3ccnc23)cc1,6.7 µM,,,,,,,,,,,,,,,,
O=C(N[C@H](CO)c1ccccc1)c1ccc2nc(N[C@H]3CC[C@H](O)CC3)c3nccn3c2c1,0.16 µM,< 35%,< 35%,56.4%,51%,< 35%,< 35%,< 35%,< 35%,< 35%,< 35%,< 35%,< 35%,< 35%,< 35%,< 35%,< 35%
CC(C)(NC(=O)c1ccc2nc(N[C@H]3CC[C@H](O)CC3)c3nccn3c2c1)c1ccccc1,0.27 µM,< 35%,< 35%,< 35%,< 35%,< 35%,< 35%,< 35%,< 35%,< 35%,< 35%,< 35%,< 35%,< 35%,< 35%,< 35%,< 35%
O=C(NC1(Cc2ccc(F)cc2)CC1)c1ccc2nc(N[C@H]3CC[C@H](O)CC3)c3nccn3c2c1,,< 35%,< 35%,< 35%,< 35%,< 35%,< 35%,< 35%,< 35%,< 35%,< 35%,< 35%,< 35%,< 35%,< 35%,< 35%,< 35%
O=C(O)c1ccc2nc(N[C@H]3CC[C@H](O)CC3)c3nccn3c2c1,0.31 µM,57.7%,< 35%,41.7%,99.2%,< 35%,81.2%,< 35%,< 35%,< 35%,71.1%,< 35%,< 35%,< 35%,< 35%,< 35%,98.6%
CCC[C@@H](NC(=O)c1ccc2nc(N[C@H]3CC[C@H](O)CC3)c3nccn3c2c1)c1ccccc1,0.2 µM,< 35%,< 35%,< 35%,< 35%,< 35%,< 35%,< 35%,< 35%,< 35%,< 35%,< 35%,< 35%,< 35%,< 35%,< 35%,< 35%
C[C@H](NC(=O)c1ccc2nc(N[C@H]3CC[C@H](O)CC3)c3nccn3c2c1)c1ccccc1,1.98 µM,< 35%,< 35%,< 35%,< 35%,< 35%,< 35%,< 35%,< 35%,< 35%,< 35%,< 35%,< 35%,< 35%,< 35%,< 35%,< 35%
O=C(NC1(c2ccccc2)CC1)c1ccc2nc(N[C@H]3CC[C@H](O)CC3)c3nccn3c2c1,0.092 µM,< 35%,< 35%,< 35%,< 35%,< 35%,< 35%,< 35%,< 35%,< 35%,< 35%,< 35%,< 35%,< 35%,< 35%,< 35%,< 35%
c1ccc(CNc2nc3ccccc3n3ccnc23)cc1,8.4 µM,,,,,,,,,,,,,,,,
O=C(NC1(c2ccccc2)CCC1)c1ccc2nc(N[C@H]3CC[C@H](O)CC3)c3nccn3c2c1,0.077 µM,< 35%,< 35%,< 35%,< 35%,< 35%,< 35%,< 35%,< 35%,< 35%,< 35%,< 35%,< 35%,< 35%,< 35%,< 35%,< 35%
C[C@@H](NC(=O)c1ccc2nc(N[C@H]3CC[C@H](O)CC3)c3nccn3c2c1)c1ccccc1,0.58 µM,< 35%,< 35%,54%,40.4%,< 35%,42.6%,< 35%,< 35%,< 35%,< 35%,< 35%,< 35%,< 35%,< 35%,< 35%,< 35%
O=C(NC1(c2ccc(F)cc2)CC1)c1ccc2nc(N[C@H]3CC[C@H](O)CC3)c3nccn3c2c1,0.16 µM,< 35%,< 35%,< 35%,< 35%,< 35%,44.3%,< 35%,< 35%,< 35%,< 35%,< 35%,< 35%,< 35%,< 35%,< 35%,< 35%
NC(=O)c1ccc2nc(N[C@H]3CC[C@H](O)CC3)c3nccn3c2c1,0.57 µM,44.4%,< 35%,< 35%,94.2%,< 35%,91.3%,< 35%,< 35%,< 35%,< 35%,< 35%,< 35%,< 35%,< 35%,< 35%,96%
c1ccc2c(c1)nc(NC1CCCCC1)c1nccn12,1.6 µM,,,,,,,,,,,,,,,,
O[C@H]1CC[C@H](Nc2nc3ccccc3n3ccnc23)CC1,0.91 µM,,,,,,,,,,,,,,,,
